# Experimental data published in ChEMBL document CHEMBL5052821, “Galactokinase inhibitors for the treatment and prevention of associated diseases and disorders” (2019).
# Activity calls are given as the source filed them. The rule behind the calls is not given here.
# Tests used:
# [1] = test system: Bacteria; assay: Inhibition of bacterial CDP-ME kinase assessed as ATP depletion up to 57 uM measured by bioluminescent kinase Glo assay; settings: dose microM <=57
# [2] = test system: HEK293; assay: Cytotoxicity against human HEK293 cells measured after 48 hrs by Cell Titer Glo assay; assay type: toxicity, cell-based; settings: hek293, 48 h
SMILES,inhibition [1],Activity [2]
O=C1CCCC2=C1C(c1cnccc1C(F)(F)F)N=C(Nc1nc3ccccc3o1)N2 (stereo not given),inactive,
O=C1CCCC2=C1C(c1cccc(F)c1)N=C(Nc1nc3ccccc3o1)N2 (stereo not given),inactive,
CC1=C(C(=O)NC2CCCCC2)C(c2ccccc2Br)N=C(Nc2nc3ccccc3o2)N1 (stereo not given),inactive,
CC1=C(C(=O)Nc2nc3ccccc3s2)C(c2n[nH]cc2Cl)N=C(Nc2nc3ccccc3o2)N1 (stereo not given),inactive,
O=C1CCCC2=C1C(c1ccncc1Cl)N=C(Nc1nc3ccccc3o1)N2 (stereo not given),inactive,
CC1=C(C(=O)Nc2ccon2)C(c2ccccc2Br)N=C(Nc2nc3ccccc3o2)N1 (stereo not given),inactive,
O=C1CCCC2=C1C(c1ccncc1Br)N=C(Nc1nc3ccccc3o1)N2 (stereo not given),inactive,
O=C1CCCC2=C1C1(CCSC1)N=C(Nc1nc3ccccc3o1)N2 (stereo not given),inactive,
O=C1CCCC2=C1C(c1n[nH]cc1Cl)NC(Nc1nc3ccccc3o1)=N2 (stereo not given),inactive,
Cc1ccc2nc(NC3=NC4(CCCC4)C4=C(CCCC4=O)N3)oc2c1,inactive,Non-Toxic
O=C1CCCC2=C1C(c1c(Cl)cccc1Cl)N=C(Nc1nc3ccccc3o1)N2 (stereo not given),inactive,
COc1cccc(C2N=C(Nc3nc4ccccc4o3)NC3=C2C(=O)CCC3)c1 (stereo not given),inactive,
COc1ccccc1NC(=O)C1=C(C)NC(Nc2nc3ccccc3o2)=NC1c1ccccc1Br (stereo not given),inactive,
O=C1CCCC2=C1C1(CCCC1)N=C(Nc1nc3ccccc3n1Cc1ccccc1)N2,inactive,
CC1=C(C(=O)Nc2ccc(Cl)cc2)C(c2ccccc2Br)N=C(Nc2nc3ccccc3o2)N1 (stereo not given),inactive,
COc1ccc(C2N=C(Nc3nc4ccccc4o3)NC3=C2C(=O)CCC3)cc1 (stereo not given),inactive,
Cc1ccsc1C1N=C(Nc2nc3ccccc3o2)NC2=C1C(=O)CCC2 (stereo not given),inactive,
CC1=C(C(=O)Nc2noc3ccccc23)C(c2nn(C)cc2Cl)N=C(Nc2nc3ccccc3o2)N1 (stereo not given),inactive,
O=C1CCCC2=C1C(c1n[nH]cc1Br)N=C(Nc1nc3ccccc3o1)N2 (stereo not given),inactive,

SMILES,inhibition [1],Activity [2]
O=C1CC(c2ccccc2)CC2=C1C1(CCCCC1)N=C(Nc1nc3ccccc3o1)N2 (stereo not given),inactive,Non-Toxic
CN(C)c1ccc(C2N=C(Nc3nc4ccccc4o3)NC3=C2C(=O)CCC3)cc1 (stereo not given),inactive,
O=C1CCC2=C1C(c1ccccc1Cl)N=C(Nc1nc3ccccc3o1)N2 (stereo not given),inactive,
Cc1ccc(C2N=C(Nc3nc4ccccc4o3)NC3=C2C(=O)CCC3)s1 (stereo not given),inactive,
CC1=C(C(=O)n2ccc3ccccc32)C(c2ccccc2Br)N=C(Nc2nc3ccccc3o2)N1 (stereo not given),inactive,
CC1=C(C(=O)Nc2ccon2)C2(CCCC2)N=C(Nc2nc3ccccc3o2)N1,inactive,
CC1=C(C(=O)Nc2ccccc2C)C(c2ccccc2Br)N=C(Nc2nc3ccccc3o2)N1 (stereo not given),inactive,
CNC(=O)C1=C(C)NC(Nc2nc3ccccc3o2)=NC1c1nn(C)cc1Cl (stereo not given),inactive,
O=C1CCCC2=C1C(c1ccc(F)cc1)N=C(Nc1nc3ccccc3o1)N2 (stereo not given),inactive,
O=C1CCCC2=C1C(c1cccnc1Cl)N=C(Nc1nc3ccccc3o1)N2 (stereo not given),inactive,
Cc1cc(C2N=C(Nc3nc4ccccc4o3)NC3=C2C(=O)CCC3)n[nH]1 (stereo not given),inactive,
O=C1CCCC2=C1C(c1ccccc1Br)N=C(Nc1nc3ccccc3o1)N2 (stereo not given),inactive,
CC1=C(C(=O)NC2CC2)C(c2nn(C)cc2Cl)N=C(Nc2nc3ccccc3o2)N1 (stereo not given),inactive,
Cn1ncc(Cl)c1C1N=C(Nc2nc3ccccc3o2)NC2=C1C(=O)CCC2 (stereo not given),inactive,
CC1CCC2(C1)N=C(Nc1nc3ccccc3o1)NC1=C2C(=O)CCC1 (stereo not given),inactive,
CC1=C(C(=O)Nc2nnc(-c3ccccc3)s2)C(c2n[nH]cc2Cl)N=C(Nc2nc3ccccc3o2)N1 (stereo not given),inactive,
CC1=C(C(=O)Nc2ccccc2)C(c2ccccc2Br)N=C(Nc2nc3ccccc3o2)N1 (stereo not given),inactive,
Cc1cccc(C2N=C(Nc3nc4ccccc4o3)NC3=C2C(=O)CCC3)c1 (stereo not given),inactive,
CNC(=O)C1=C(C)NC(Nc2nc3ccccc3o2)=NC12CCCC2,inactive,

SMILES,inhibition [1],Activity [2]
O=C1CCCC2=C1[C@@]1(CCC(c3ccccc3)C1)N=C(Nc1nc3ccccc3o1)N2 (stereo not given in full),inactive,
O=C1CCCC2=C1C1(CCOCC1)N=C(Nc1nc3ccccc3o1)N2,inactive,
CC1=C(C(=O)Nc2nncs2)C(c2ccccc2Br)N=C(Nc2nc3ccccc3o2)N1 (stereo not given),inactive,
O=C1CCCC2=C1C1(CCCC1)N=C(Nc1nc3ccccc3o1)N2,inactive,Non-Toxic
CC1(C)CC(=O)C2=C(C1)NC(Nc1nc3ccccc3o1)=NC21CCCCC1,inactive,
O=C1CCCC2=C1C(c1ccccc1Cl)N=C(Nc1nc3ccccc3o1)N2 (stereo not given),inactive,
O=C1CCCC2=C1C(c1ccc(Cl)cc1)N=C(Nc1nc3ccccc3o1)N2 (stereo not given),inactive,
CC1=C(C(=O)Nc2nc3ccccc3s2)C2(CCCC2)N=C(Nc2nc3ccccc3o2)N1,inactive,
CC1=C(C(=O)Nc2ccon2)C(c2nn(C)cc2Cl)N=C(Nc2nc3ccccc3o2)N1 (stereo not given),inactive,
O=C1CC(c2ccccc2)CC2=C1C1(CCCC1)N=C(Nc1nc3ccccc3o1)N2 (stereo not given),inactive,
O=C1CCCC2=C1C(c1ccccc1)N=C(Nc1nc3ccccc3o1)N2 (stereo not given),inactive,
Cc1ccc(C2N=C(Nc3nc4ccccc4o3)NC3=C2C(=O)CCC3)cc1 (stereo not given),inactive,
Cc1ccc2oc(NC3=NC4(CCCC4)C4=C(CCCC4=O)N3)nc2c1,inactive,Non-Toxic
CC1=C(C(=O)N(C)C)C(c2ccccc2Br)N=C(Nc2nc3ccccc3o2)N1 (stereo not given),inactive,
O=C1CCCC2=C1C1(CCC1)N=C(Nc1nc3ccccc3o1)N2,inactive,Non-Toxic
CC1(C)N=C(Nc2nc3ccccc3o2)NC2=C1C(=O)CCC2,inactive,
O=C1CCCC2=C1C(c1cccc(C(F)(F)F)c1)N=C(Nc1nc3ccccc3o1)N2 (stereo not given),inactive,
O=C1CCCC2=C1C(c1ncccc1Br)N=C(Nc1nc3ccccc3o1)N2 (stereo not given),inactive,

# The next lines start with results.
inhibition [1],SMILES,Activity [2]
inactive,O=C1CCCC2=C1C(c1cccnc1)N=C(Nc1nc3ccccc3o1)N2 (stereo not given),
inactive,COc1ccc(NC(=O)C2=C(C)NC(Nc3nc4ccccc4o3)=NC2c2ccccc2Br)cc1 (stereo not given),
inactive,Cn1cc(Br)c(C2N=C(Nc3nc4ccccc4o3)NC3=C2C(=O)CCC3)n1 (stereo not given),
inactive,O=C1CCCC2=C1C(c1ccccc1I)N=C(Nc1nc3ccccc3o1)N2 (stereo not given),
inactive,O=C1CCCC2=C1C(c1ccncc1)N=C(Nc1nc3ccccc3o1)N2 (stereo not given),
inactive,O=C1CCCC2=C1C1(CCCC1)N=C(Nc1nc3cc(Cl)ccc3o1)N2,Non-Toxic
inactive,O=C1CCCC2=C1C(c1ncccc1C(F)(F)F)N=C(Nc1nc3ccccc3o1)N2 (stereo not given),
inactive,CC1=C(C(=O)NC2CC2)C(c2n[nH]cc2Cl)N=C(Nc2nc3ccccc3o2)N1 (stereo not given),
inactive,CC1=C(C(=O)Nc2ccc(C)cc2)C(c2ccccc2Br)N=C(Nc2nc3ccccc3o2)N1 (stereo not given),
inactive,CC1=C(C(=O)Nc2nccs2)C(c2ccccc2Br)N=C(Nc2nc3ccccc3o2)N1 (stereo not given),
inactive,CC1(C)CC(=O)C2=C(C1)NC(Nc1nc3ccccc3o1)=NC21CCCC1,Non-Toxic
inactive,O=C1CCCC2=C1C(c1ccccc1C(F)(F)F)N=C(Nc1nc3ccccc3o1)N2 (stereo not given),
inactive,CC1=C(C(=O)Nc2nc3ccccc3s2)C(c2nn(C)cc2Cl)N=C(Nc2nc3ccccc3o2)N1 (stereo not given),
inactive,O=C1CCCC2=C1C1(CCS(=O)(=O)C1)N=C(Nc1nc3ccccc3o1)N2 (stereo not given),
inactive,Cn1c(NC2=NC3(CCCC3)C3=C(CCCC3=O)N2)nc2ccccc21,Non-Toxic
inactive,CNC(=O)C1=C(C)NC(Nc2nc3ccccc3o2)=NC1c1n[nH]cc1Cl (stereo not given),
inactive,CCC1CCC2(C1)N=C(Nc1nc3ccccc3o1)NC1=C2C(=O)CCC1 (stereo not given),

inhibition [1],SMILES,Activity [2]
inactive,O=C1CCCC2=C1C(c1ccn[nH]1)N=C(Nc1nc3ccccc3o1)N2 (stereo not given),
inactive,O=C1CCCC2=C1C(c1cccnc1Br)N=C(Nc1nc3ccccc3o1)N2 (stereo not given),
inactive,O=C1CCCC2=C1C1(CCSCC1)N=C(Nc1nc3ccccc3o1)N2,
inactive,CC1=C(C(=O)N(C)c2ccccc2C)C(c2ccccc2Br)N=C(Nc2nc3ccccc3o2)N1 (stereo not given),
inactive,O=C1CCCC2=C1C1(CCCOC1)N=C(Nc1nc3ccccc3o1)N2 (stereo not given),
inactive,COc1ccccc1C1N=C(Nc2nc3ccccc3o2)NC2=C1C(=O)CCC2 (stereo not given),
inactive,O=C1CCCC2=C1C1(CCCC1)N=C(Nc1nc3cc(-c4ccccc4)ccc3o1)N2,
inactive,O=C1CCCC2=C1C1(CCCC1)N=C(Nc1nc3cc4ccccc4cc3o1)N2,Non-Toxic
inactive,CC1=C(C(=O)Nc2nncs2)C(c2nn(C)cc2Cl)N=C(Nc2nc3ccccc3o2)N1 (stereo not given),
inactive,CC1=C(C(=O)NC2CCCC2)C(c2n[nH]cc2Cl)N=C(Nc2nc3ccccc3o2)N1 (stereo not given),
inactive,O=C1CCCC2=C1C(c1cccc(Cl)c1)N=C(Nc1nc3ccccc3o1)N2 (stereo not given),
inactive,O=C1CCC2=C1C1(CCCC1)N=C(Nc1nc3ccccc3o1)N2,Non-Toxic
inactive,CC1=C(C(=O)Nc2nc3ccccc3o2)C2(CCCC2)N=C(Nc2nc3ccccc3o2)N1,
inactive,O=C1CCCC2=C1C1(CCCC1)N=C(Nc1nc3cc(Br)ccc3o1)N2,Non-Toxic
inactive,CC1=C(C(=O)Nc2nncs2)C2(CCCC2)N=C(Nc2nc3ccccc3o2)N1,
inactive,CC1=C(C(=O)NCc2ccccc2)C(c2ccccc2Br)N=C(Nc2nc3ccccc3o2)N1 (stereo not given),
